Results published in PMC5952258, “Identification of a Mycothiol-Dependent Nitroreductase from Mycobacterium tuberculosis” (ACS Infectious Diseases, 2018).

Biological target: Rv2466c (rRv2466c; Mrx-2) (Mycobacterium tuberculosis, UniProt O53193)
Sequence (O53193 whole entry): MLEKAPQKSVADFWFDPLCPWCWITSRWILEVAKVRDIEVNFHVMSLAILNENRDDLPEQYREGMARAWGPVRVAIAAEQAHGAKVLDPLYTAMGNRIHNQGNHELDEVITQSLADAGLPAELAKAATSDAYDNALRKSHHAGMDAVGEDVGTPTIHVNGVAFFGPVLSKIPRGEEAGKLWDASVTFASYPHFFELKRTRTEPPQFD

In the case of `CC(=O)N[C@@H](CSSC[C@H](NC(C)=O)C(=O)N[C@H]1[C@@H](O[C@@H]2[C@H](O)[C@H](O)[C@@H](O)[C@H](O)[C@H]2O)O[C@H](CO)[C@@H](O)[C@@H]1O)C(=O)N[C@H]1[C@@H](O[C@@H]2[C@H](O)[C@H](O)[C@@H](O)[C@H](O)[C@H]2O)O[C@H](CO)[C@@H](O)[C@@H]1O` [mycothione], the melting temperature shift is reported as “MSSM also caused a significant shift in the melting temperature”.
